Measurements taken from ChEMBL document CHEMBL5241054, “Effective anti-aromatase therapy to battle against estrogen-mediated breast cancer: Comparative SAR/QSAR assessment on steroidal aromatase inhibitors” (Eur J Med Chem, 2020).
Where “and” joins values, the source holds several entries; their conditions need not be identical. Equal values may be shown once.

Key:
Aromatase [1] = target: T1, Aromatase (Homo sapiens, UniProt P11511)
T1 sequence (P11511 whole entry): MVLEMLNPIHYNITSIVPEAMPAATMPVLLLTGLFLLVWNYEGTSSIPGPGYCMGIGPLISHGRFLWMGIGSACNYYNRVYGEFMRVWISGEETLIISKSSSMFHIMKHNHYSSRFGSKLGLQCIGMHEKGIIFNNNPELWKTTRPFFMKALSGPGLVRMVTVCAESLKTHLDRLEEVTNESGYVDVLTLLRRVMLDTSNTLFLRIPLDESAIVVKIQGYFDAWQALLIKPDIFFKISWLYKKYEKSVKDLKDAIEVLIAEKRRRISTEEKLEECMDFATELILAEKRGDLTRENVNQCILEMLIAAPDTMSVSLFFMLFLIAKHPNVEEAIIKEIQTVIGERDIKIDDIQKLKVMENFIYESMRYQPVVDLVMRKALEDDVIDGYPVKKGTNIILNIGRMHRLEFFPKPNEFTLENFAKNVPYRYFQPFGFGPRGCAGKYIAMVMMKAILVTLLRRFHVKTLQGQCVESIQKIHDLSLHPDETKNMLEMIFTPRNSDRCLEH

Aromatase [2] = target: T1, Aromatase; remark: listed apart in the source
Aromatase [3] = target: T1, Aromatase; remark: listed apart in the source
Aromatase [4] = target: T1, Aromatase; assay: Binding affinity to aromatase (unknown origin) assessed as change in gibbs free energy

| Compound | pIC50 (Aromatase [1]) | IC50 (Aromatase [2]) | IC50 (Aromatase [3]) | deltaG (Aromatase [4]) |
| --- | --- | --- | --- | --- |
| C[C@]12CC[C@H](O)CC1=CC[C@@H]1[C@@H]2CC[C@]2(C)C(=O)[C@@H](n3ccnc3)C[C@@H]12 | 5.481 | – | – | – |
| C[C@]12CCC(=O)C=C1C=C(Cc1ccccc1)[C@@H]1[C@@H]2CC[C@]2(C)C(=O)CC[C@@H]12 | – | 61 nM | 600 nM | – |
| C[C@]12CCC(=O)C=C1C=C(CCc1ccccc1)[C@@H]1[C@@H]2CC[C@]2(C)C(=O)CC[C@@H]12 | – | 174 nM | 661 nM | – |
| C[C@]12CCC(=O)C=C1C=C(CCc1ccc([N+](=O)[O-])cc1)[C@@H]1[C@@H]2CC[C@]2(C)C(=O)CC[C@@H]12 | – | 95.1 nM | 4500 nM | – |
| C[C@]12C=CC(=O)C=C1C[C@@H](CCCc1ccccc1)[C@@H]1[C@@H]2CC[C@]2(C)C(=O)CC[C@@H]12 | – | 63.7 nM | 7.69 nM | – |
| C[C@]12CCC(=O)C(O)=C1CC[C@@H]1[C@@H]2CC[C@]2(C)C(=O)CC[C@@H]12 [FORMESTANE] | – | 562 nM | – | 13.35 kcal/mol |
| C[C@]12CCC(=O)C=C1C(=O)C[C@@H]1[C@@H]2CC[C@]2(C)C(=O)CC[C@@H]12 | – | 280 nM | 1100 nM and 280 nM | – |
| C[C@]12CCC(=O)C=C1C=C(Cc1ccc([N+](=O)[O-])cc1)[C@@H]1[C@@H]2CC[C@]2(C)C(=O)CC[C@@H]12 | – | 94 nM | 929 nM | – |
